The values that follow come from patent US11519014B2, “Specific substrate of an ALDH isoenzyme” (ADVANCED BIODESIGN, priority 2016, dated 2022).

Assay [1] addresses T1, ALDH1A1 (Homo sapiens, UniProt P00352).
T1 construct: purchased R&D Systems 5869-DH
T1 sequence (P00352 1-501): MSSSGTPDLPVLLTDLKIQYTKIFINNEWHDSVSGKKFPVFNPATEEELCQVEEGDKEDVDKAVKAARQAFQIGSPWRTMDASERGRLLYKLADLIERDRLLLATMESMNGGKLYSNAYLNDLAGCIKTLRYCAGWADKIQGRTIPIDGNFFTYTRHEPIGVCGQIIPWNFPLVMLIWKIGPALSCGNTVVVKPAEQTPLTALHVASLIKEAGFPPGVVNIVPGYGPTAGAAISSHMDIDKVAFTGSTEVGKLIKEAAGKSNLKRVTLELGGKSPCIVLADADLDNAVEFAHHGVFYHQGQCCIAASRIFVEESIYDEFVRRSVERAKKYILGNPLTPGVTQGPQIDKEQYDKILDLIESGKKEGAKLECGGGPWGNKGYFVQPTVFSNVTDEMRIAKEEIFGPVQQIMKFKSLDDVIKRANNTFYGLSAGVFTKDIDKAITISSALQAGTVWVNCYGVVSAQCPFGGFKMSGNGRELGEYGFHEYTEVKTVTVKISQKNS
The assay can be described thus: Double localization of resorufin propionate and ALDH1A1 by fluorescent microscopy (NCI-H522 cells). Type of assay: cell-based. Particulars: 10 μM resorufin propionate, 30 minutes, results not shown. As to the method:
In a 24-well plate with microscope glasses previously washed with ethanol and then placed in the wells, the NCI-H522 cells were added at a cell concentration of 50.000 cells/well and then incubated in RPMI-1640 medium supplemented with L-Glutamine, Penicillin, Streptomycin and 10% Fetal Calf Serum overnight at +37° C. with a 5% CO2 atmosphere. The next day, the culture medium was changed with either DIMATE (5 μM) or the treatment vehicle and incubated for 6 hours. The cells were incubated for 30 minutes with culture medium supplemented with 10 μM of resorufin propionate, were then washed with cold PBS and then fixed with paraformaldehyde for 15 minutes at 37° C. The cells were permeabilized and saturated with PBS; 3% bovine albumin; 0.3% triton for 1 hour. The incubation was carried out with the anti-ALDH1A1 antibody (R&D System, MAB5869) for 1 hour at +37° C., then with an anti-mouse antibody coupled to fluorescein for 1 hour at room temperature in the dark, with PBS washes between the two steps. 3 washes with PBS were carried out then the microscopy glasses were mounted with an anti-decoloration support supplemented with DAPI. The cells were then observed under a microscope.

The target in assay [2] is T1, ALDH1A1. The assay can be described thus: ALDH1 activity by resorufine propionate after treatment with interfering RNA ALDH1A1 (NCI-H522 cells). Particulars: 100 nM of siRNA, 10 μM resorufin propionate, P<0.05, FIG. 2. Type of assay: cell-based. As to the method: In a 60 mm Petri dish, the NCI-H522 cells were seeded at a concentration of 250.000 cells/plate, corresponding to a confluence of 40-50%, in RPMI-1640 medium supplemented with L-Glutamine, Penicillin, Streptomycin and 10% Fetal Calf Serum (FCS) overnight at 37° C. The next day, the medium was replaced by the same medium without FCS. The transfection solution was then prepared by diluting 100 nM in 500 μL of culture medium without FCS, to which 500 μL of culture medium without FCS supplemented with 3 μL of lipofectamine 2000 (Invitrogen) was added. The solution was then incubated for 30 minutes at room temperature and then drops added to the cell solution. The mixture was incubated at +37° C. in a 5% CO2 incubator for 8 hours. […] The specific activity of ALDH1A1 was then assayed by fluorescence.
The cells were inoculated at a concentration of 1×10^4 cells/well in a 96-well plate in 100 μl in RPMI-1640 medium without phenol red supplemented with L-Glutamine, Penicillin, Streptomycin and 10% Fetal Calf Serum (FCS) supplemented with 10 μM resorufin propionate. The cells were then incubated for 1 hour and then the plate was read using an Appliskan fluorescent plate reader (ex=560 nm, Em=600). The data were expressed in relative fluorescence units produced by an equal number of cells.

The target in assay [3] is T1, ALDH1A1. The assay can be described thus: Determination of the Km and Vmax of resorufine propionate with purified ALDH1A1. Type of assay: biochemical. Conditions: column ALDH1; relative to ALDH1. As to the method: (§1) In 50 μl of 0.1 M phosphate buffer pH6.00; 0.2 M KCl; 2 mM NADP+; 2 mM EDTA, a range of resorufine propionate was made: 250, 200, 150, 125, 100, 90, 80 and 70 μM and 0 μM. 50 μL of recombinant enzyme solution at 2.5 mU/well ALDH1A1 (R&D Sytems, 5869-DH), ALDH2 (abcam, ab87415) and ALDH3A1 (R&D Sytems, 6705-DH) was added. The incubation was carried out for 30 minutes at +37° C. and then the fluorescence reading was made (Em: 590 nm, Ex: 530 nm). The data were then converted to resorufin released (nM·min-1.μg^−1) and Km and Vmax were calculated using the Michaelis-Menten equation using GraphPad Prism 5.0.

For a further assay, the target named is T2, ALDH2 (Homo sapiens, UniProt P05091).
T2 construct: purchased abcam ab87415
T2 sequence (P05091 18-517): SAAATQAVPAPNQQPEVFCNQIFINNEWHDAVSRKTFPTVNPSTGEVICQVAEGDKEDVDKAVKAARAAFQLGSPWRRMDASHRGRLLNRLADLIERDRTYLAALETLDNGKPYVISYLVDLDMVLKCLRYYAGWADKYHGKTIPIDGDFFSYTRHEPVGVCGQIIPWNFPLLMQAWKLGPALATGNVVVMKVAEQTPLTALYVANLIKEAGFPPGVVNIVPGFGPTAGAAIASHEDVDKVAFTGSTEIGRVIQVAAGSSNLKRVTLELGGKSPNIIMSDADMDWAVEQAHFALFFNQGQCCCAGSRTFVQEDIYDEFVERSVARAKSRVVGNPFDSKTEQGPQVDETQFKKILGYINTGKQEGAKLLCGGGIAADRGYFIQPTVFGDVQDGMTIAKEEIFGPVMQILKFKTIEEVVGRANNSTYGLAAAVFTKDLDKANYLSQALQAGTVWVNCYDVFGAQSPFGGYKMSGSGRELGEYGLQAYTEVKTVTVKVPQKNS
The assay can be described thus: Determination of the Km and Vmax of resorufine propionate with purified ALDH2. Type of assay: biochemical. Conditions: column ALDH2; relative to ALDH1. Here is the method:
as §1

Another assay has as its target T3, ALDH3A1 (Homo sapiens, UniProt P30838).
T3 construct: purchased R&D Systems 6705-DH
T3 sequence (P30838 1-453): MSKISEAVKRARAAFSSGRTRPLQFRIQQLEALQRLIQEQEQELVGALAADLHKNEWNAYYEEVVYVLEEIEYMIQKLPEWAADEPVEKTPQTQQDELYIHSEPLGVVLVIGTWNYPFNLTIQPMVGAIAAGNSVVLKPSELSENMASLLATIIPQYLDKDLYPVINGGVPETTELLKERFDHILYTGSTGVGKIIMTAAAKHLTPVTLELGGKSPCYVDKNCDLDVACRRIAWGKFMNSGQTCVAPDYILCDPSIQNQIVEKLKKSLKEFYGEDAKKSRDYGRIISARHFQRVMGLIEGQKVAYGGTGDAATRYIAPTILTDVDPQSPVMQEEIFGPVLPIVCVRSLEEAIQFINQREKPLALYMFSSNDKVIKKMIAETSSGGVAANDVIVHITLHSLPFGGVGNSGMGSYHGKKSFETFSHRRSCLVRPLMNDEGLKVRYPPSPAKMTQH
Description: Determination of the Km and Vmax of resorufine propionate with purified ALDH3A1. Type of assay: biochemical. Particulars: column ALDH3. As to the method:
as §1

In general, Km refers to the substrate concentration at which the rate is half of its maximum. Consider `CCC(=O)Oc1ccc2nc3ccc(=O)cc-3oc2c1` [resorufine propionate, Resorufine propionate], for which the “colocalization of fluorescent signal with ALDH1A1” value on ALDH1A1 [1] is listed as “can be colocalized with ALDH1A1”. In addition, the “signal resorufine propionate after ALDH1A1 siRNA” value at ALDH1A1 [2] is on record as “decrease significant”. In addition, the figures for the Increase on ALDH1A1 [3], on ALDH2 and at ALDH3A1 (relative to ALDH1) were 1, 0.54 and 0.17, respectively. Moreover, the Michaelis constant (Km) at ALDH3A1 (substrate range 70-250 μM) amounted to 445 µM.
